Structures can show the parent of a compound that is named as a salt. One block for each molecule: values may come before it.
How the values were obtained:
[1] = test system: primary mouse splenocytes; settings: wild type and Nrf2(-/-) splenocytes; cited from earlier work
KDM4B C694 (O94953) = molecular target: T1, KDM4B C694 (O94953) (Homo sapiens, UniProt O94953); experiment: Competitive isoTOP-ABPP in situ; assay type: cell-based; settings: fragment 2 at 200 μM, MDA-MB-231 cells
T1 sequence (O94953 1-1096): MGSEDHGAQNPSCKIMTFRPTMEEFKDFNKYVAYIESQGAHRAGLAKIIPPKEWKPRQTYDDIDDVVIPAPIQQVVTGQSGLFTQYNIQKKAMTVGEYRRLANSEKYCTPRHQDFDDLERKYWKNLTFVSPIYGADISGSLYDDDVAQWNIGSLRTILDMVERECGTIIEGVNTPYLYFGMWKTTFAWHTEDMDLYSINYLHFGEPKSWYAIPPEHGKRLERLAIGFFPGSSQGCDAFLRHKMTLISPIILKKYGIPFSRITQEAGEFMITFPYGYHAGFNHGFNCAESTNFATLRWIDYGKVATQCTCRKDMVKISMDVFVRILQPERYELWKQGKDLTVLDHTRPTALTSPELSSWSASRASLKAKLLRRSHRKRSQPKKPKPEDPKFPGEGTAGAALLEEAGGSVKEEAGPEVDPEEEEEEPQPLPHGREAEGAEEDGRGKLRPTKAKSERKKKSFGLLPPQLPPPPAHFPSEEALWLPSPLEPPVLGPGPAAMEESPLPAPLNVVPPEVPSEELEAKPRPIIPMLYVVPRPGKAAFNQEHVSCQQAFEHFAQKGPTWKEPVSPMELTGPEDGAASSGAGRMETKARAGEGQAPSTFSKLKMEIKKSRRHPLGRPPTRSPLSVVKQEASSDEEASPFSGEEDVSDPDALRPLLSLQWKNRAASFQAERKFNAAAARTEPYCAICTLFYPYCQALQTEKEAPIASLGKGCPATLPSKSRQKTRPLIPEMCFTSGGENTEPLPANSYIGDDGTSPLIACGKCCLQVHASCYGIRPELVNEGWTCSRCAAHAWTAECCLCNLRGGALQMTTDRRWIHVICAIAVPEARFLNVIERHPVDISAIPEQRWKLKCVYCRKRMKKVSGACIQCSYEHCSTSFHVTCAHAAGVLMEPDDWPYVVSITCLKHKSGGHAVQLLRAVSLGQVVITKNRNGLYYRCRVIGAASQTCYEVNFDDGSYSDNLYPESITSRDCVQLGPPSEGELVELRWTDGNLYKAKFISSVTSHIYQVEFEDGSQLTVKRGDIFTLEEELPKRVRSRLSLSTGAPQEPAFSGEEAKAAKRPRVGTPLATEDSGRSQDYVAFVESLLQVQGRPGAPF

ACO2 C385 (Q99798) = ACO2 C385 (Q99798) (Homo sapiens, UniProt Q99798); experiment: Competitive isoTOP-ABPP in situ; assay type: cell-based; settings: MDA-MB-231 cells
USP16 C205 (Q9Y5T5) = USP16 C205 (Q9Y5T5) (Homo sapiens, UniProt Q9Y5T5); experiment: Competitive isoTOP-ABPP in situ; assay type: cell-based; settings: MDA-MB-231 cells
CYR61 C70 (O00622) = CYR61 C70 (O00622) (Homo sapiens, UniProt O00622); experiment: Competitive isoTOP-ABPP, cell lysates; assay type: binding
CLTC C870 (Q00610) = CLTC C870 (Q00610) (Homo sapiens, UniProt Q00610); experiment: Competitive isoTOP-ABPP in situ; assay type: cell-based; settings: fragment 4 at 100 μM, MDA-MB-231 cells
NIT1 C165 (Q86X76) = NIT1 C165 (Q86X76) (Homo sapiens, UniProt Q86X76); experiment: Competitive isoTOP-ABPP in situ; assay type: cell-based; settings: fragment 4 at 100 μM, MDA-MB-231 cells
Sequence of NIT1 C165 (Q86X76) (Q86X76 14-327): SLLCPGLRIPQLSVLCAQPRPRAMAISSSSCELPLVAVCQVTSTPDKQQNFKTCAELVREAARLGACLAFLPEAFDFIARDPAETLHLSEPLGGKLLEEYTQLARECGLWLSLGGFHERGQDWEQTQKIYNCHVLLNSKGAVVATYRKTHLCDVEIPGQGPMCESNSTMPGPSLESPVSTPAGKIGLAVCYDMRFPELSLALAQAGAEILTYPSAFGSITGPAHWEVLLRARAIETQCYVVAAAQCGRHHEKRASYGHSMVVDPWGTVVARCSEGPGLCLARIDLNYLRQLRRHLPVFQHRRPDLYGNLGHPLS

Sequence of CYR61 C70 (O00622) (O00622 25-381): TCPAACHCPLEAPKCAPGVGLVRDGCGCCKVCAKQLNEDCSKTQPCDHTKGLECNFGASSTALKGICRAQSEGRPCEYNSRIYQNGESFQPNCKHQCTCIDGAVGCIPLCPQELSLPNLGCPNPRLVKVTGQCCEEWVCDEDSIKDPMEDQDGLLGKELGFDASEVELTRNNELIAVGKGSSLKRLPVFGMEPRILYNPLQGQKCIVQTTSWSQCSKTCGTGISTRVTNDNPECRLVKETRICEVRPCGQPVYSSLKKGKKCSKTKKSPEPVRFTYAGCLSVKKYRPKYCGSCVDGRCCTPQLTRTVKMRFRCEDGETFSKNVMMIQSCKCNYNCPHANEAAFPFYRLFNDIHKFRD
Sequence of USP16 C205 (Q9Y5T5) (Q9Y5T5 whole entry): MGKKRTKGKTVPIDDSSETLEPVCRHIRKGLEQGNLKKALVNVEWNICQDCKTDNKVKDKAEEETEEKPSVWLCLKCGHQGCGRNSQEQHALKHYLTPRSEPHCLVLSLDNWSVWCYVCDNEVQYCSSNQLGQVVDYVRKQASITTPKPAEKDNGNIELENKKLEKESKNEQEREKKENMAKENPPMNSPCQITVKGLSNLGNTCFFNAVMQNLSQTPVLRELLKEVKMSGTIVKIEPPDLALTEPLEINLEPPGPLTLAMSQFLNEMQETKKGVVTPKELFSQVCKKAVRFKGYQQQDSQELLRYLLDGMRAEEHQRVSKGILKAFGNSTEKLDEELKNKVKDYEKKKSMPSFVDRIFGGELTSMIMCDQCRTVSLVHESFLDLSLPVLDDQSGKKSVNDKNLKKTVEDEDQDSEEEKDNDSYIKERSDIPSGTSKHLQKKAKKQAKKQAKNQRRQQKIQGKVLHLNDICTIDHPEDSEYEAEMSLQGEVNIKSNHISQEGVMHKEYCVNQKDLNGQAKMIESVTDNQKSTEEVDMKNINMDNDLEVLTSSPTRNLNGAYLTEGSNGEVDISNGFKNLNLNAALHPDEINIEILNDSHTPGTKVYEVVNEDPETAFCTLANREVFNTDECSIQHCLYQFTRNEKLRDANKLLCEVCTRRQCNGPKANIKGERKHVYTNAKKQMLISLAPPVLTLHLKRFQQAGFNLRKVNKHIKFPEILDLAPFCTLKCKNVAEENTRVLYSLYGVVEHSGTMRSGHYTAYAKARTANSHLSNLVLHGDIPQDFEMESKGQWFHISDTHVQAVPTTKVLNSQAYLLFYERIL
Sequence of ACO2 C385 (Q99798) (Q99798 28-780): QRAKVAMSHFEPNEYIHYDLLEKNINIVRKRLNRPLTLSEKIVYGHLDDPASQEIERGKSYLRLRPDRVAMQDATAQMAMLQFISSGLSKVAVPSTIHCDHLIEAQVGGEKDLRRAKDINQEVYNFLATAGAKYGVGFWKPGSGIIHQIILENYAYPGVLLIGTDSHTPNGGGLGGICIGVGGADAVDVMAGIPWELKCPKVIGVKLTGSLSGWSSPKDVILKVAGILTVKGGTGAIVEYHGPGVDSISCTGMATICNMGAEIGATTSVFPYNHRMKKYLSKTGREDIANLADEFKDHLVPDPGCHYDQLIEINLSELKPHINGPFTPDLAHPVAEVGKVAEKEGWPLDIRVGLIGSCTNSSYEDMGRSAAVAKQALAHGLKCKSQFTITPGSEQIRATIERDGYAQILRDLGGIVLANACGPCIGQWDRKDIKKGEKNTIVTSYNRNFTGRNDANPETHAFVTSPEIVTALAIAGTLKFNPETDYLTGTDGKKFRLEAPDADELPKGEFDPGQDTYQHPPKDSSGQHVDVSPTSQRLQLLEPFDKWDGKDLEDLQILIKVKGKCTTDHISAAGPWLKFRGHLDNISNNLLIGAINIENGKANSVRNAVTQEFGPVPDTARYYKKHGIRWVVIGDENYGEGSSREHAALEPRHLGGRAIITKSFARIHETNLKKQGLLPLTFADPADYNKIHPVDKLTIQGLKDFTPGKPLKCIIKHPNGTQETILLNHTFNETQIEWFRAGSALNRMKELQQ
Sequence of CLTC C870 (Q00610) (Q00610 whole entry, the tested form may be a part): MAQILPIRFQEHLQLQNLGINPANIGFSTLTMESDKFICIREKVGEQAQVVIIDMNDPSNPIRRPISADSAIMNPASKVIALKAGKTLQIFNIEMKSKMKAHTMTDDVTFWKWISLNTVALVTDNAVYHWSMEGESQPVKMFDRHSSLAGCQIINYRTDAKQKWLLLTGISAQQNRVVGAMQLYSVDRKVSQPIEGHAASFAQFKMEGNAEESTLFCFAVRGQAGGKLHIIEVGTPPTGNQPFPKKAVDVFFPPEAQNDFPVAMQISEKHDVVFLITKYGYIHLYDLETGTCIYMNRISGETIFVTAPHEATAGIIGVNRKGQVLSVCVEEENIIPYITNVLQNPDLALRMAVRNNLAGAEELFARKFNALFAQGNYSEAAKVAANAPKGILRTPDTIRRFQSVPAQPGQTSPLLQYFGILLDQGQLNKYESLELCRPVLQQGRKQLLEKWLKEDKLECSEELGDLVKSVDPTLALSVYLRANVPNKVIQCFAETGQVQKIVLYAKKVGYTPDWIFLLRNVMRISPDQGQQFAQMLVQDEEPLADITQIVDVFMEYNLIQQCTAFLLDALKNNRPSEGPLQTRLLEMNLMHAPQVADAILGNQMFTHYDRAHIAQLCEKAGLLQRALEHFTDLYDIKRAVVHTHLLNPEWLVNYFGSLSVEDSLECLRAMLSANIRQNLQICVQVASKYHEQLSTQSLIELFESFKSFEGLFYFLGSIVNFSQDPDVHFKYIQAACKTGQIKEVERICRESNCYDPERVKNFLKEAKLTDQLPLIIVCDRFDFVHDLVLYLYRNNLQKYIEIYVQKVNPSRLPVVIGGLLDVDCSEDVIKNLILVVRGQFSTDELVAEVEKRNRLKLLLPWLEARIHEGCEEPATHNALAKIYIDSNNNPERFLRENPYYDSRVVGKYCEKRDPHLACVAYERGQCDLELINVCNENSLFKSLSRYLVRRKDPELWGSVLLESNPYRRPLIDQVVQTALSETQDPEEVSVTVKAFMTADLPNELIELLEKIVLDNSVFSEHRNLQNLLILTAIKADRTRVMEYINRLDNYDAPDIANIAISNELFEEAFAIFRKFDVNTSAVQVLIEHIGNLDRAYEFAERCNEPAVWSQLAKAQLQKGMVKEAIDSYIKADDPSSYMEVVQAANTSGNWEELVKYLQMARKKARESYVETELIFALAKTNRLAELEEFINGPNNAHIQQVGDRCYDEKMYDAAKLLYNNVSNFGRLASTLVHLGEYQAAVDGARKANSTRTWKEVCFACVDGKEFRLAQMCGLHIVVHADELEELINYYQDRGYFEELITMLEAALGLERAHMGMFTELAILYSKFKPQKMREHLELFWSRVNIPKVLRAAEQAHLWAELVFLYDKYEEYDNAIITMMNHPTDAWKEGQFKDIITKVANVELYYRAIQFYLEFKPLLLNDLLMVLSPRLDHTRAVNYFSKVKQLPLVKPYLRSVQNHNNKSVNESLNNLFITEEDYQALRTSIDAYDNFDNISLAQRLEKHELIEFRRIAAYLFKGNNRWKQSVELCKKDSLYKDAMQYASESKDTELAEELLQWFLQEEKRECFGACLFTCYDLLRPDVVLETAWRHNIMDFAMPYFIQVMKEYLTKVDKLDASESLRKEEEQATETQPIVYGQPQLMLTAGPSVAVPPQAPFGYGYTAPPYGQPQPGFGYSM

SMILES: COC(=O)/C=C/C(=O)OC [DMF, dimethyl fumarate]
pro-inflammatory cytokine release [1]: inhibits

isoTOP-ABPP reactivity profile (ratio) 2_200 μM_in-situ_231 (KDM4B C694 (O94953)): 20.0
isoTOP-ABPP reactivity profile (ratio) 2_200 μM_in-situ_231 (ACO2 C385 (Q99798); fragment 2 at 200 μM): 20.0
isoTOP-ABPP reactivity profile (ratio) 2_200 μM_in-situ_231 (USP16 C205 (Q9Y5T5); fragment 2 at 200 μM): 7.9
SMILES: COc1ccc2c(c1)CCCN2C(=O)CCl [compound 2]

R value (DMSO/fragment) (CYR61 C70 (O00622); 500 μM, in vitro, MDA-MB-231): 20.0
SMILES: O=C(CCl)Nc1cc(C(F)(F)F)cc(C(F)(F)F)c1 [compound 3]

isoTOP-ABPP reactivity profile (ratio) 4_100 μM_in-situ_231 (ACO2 C385 (Q99798); fragment 4 at 100 μM): 1.0
isoTOP-ABPP reactivity profile (ratio) 4_100 μM_in-situ_231 (USP16 C205 (Q9Y5T5); fragment 4 at 100 μM): 20.0
isoTOP-ABPP reactivity profile (ratio) 4_100 μM_in-situ_231 (CLTC C870 (Q00610)): 2.1
isoTOP-ABPP reactivity profile (ratio) 4_100 μM_in-situ_231 (NIT1 C165 (Q86X76)): 0.9
SMILES: COc1ccc(C2CC(c3cccs3)=NN2C(=O)CCl)cc1 (stereo not shown) [compound 4]

isoTOP-ABPP ratio (reactivity profile), O00622_C70 (CYR61 C70 (O00622); 500 μm in-vitro ramos_231): 1.1
SMILES: CC(C)CCOCCNC(=O)CCl [compound 27]

From patent US10670605B2, “Cysteine reactive probes and uses thereof” (The Scripps Research Institute, priority 2015, dated 2020)
